Data as given in BindingDB's records for doi:10.1021/jm9605849 (Monash University, 1997).

Biological target: 5-hydroxytryptamine receptor 1D (Bos taurus)
Experiment: Affinity pKi for 5-hydroxytryptamine 1D receptor was measured in calf caudate homogenate

- Ki: 10 µM
Compound: CCOC(=O)c1[nH]c2ccc(CCN3C(=O)CNC3=O)cc2c1CCN(C)C
